Reference: patent US8822517B2, “Arylosulfonamides for the treatment of CNS diseases” (Adamed SP. Z O.O., priority 2010, dated 2014)

Legend:
[1] = target: T1, serotoninergic 5-HT7 receptor (Homo sapiens, UniProt P34969); experiment: Cellular functional assay, serotoninergic 5-HT7 receptor (agonism/antagonism); assay type: cell-based; conditions: for activation at 1 µM: agonist effect, percent of control specific agonist response, compounds tested at 1×10^−6M, read-out: 5-HT7-ag [%]; for inhibition at 1 µM: read-out: 5-HT7-antag. [%]
T1 sequence (P34969 whole entry): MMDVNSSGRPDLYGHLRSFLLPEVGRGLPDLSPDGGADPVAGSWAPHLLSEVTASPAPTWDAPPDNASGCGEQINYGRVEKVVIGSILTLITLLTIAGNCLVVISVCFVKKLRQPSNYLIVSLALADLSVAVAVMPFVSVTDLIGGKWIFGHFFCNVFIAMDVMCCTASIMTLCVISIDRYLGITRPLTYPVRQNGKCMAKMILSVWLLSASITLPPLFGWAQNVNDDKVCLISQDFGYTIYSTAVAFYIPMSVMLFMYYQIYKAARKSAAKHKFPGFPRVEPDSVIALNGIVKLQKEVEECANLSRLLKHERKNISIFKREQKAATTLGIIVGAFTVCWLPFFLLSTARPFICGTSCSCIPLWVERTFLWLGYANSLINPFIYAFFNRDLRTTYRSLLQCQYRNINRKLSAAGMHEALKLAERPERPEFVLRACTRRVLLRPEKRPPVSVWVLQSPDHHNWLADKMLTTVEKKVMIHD
Description: (§1) The compounds were tested at the concentration of 1×10^−6M.
(§2) In the Tables ag refers to agonism, and antag to antagonism).

[2] = test system: sigma σ receptor; experiment: Binding assay σ (non-selective), [3H]DTG, rat cerebral cortex; conditions: percent inhibition of control specific binding; compounds tested at 1×10^−6 M
Method in brief: (§3)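 Binding read by scintillation counting. Non-specific component defined by excess unlabelled ligand and removed from total counts. Compounds at 1×10^−6 M.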

[3] = target: T2, serotonine transporter (SERT) receptor (Homo sapiens, UniProt P31645); experiment: Binding assay SERT (h), [3H]imipramine, CHO cells; conditions: read-out: SERT [%]
T2 construct: expressed in transfected cells; host or cells: CHO cells
T2 sequence (P31645 whole entry): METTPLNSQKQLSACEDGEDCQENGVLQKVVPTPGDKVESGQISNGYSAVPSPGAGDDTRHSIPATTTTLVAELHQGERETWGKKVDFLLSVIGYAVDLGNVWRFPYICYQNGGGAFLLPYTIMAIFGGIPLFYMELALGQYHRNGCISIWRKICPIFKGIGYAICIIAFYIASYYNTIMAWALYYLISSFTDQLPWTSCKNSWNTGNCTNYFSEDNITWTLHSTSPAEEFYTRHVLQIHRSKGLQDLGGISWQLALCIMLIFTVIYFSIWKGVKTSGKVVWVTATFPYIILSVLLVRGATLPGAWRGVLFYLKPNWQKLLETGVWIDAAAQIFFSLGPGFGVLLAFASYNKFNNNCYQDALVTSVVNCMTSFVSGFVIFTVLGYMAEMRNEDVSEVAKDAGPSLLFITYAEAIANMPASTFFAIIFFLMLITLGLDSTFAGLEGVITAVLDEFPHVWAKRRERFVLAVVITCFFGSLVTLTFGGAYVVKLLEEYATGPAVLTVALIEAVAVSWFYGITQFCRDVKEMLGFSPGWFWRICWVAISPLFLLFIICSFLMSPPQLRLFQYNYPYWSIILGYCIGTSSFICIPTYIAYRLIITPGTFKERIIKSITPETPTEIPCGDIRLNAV
Method in brief: as §3

[4] = target: histaminergic H1 receptor (Homo sapiens, UniProt P35367); experiment: Binding assay H1 (h), [3H]pyrilamine, HEK-293 cells; set-up: expressed in transfected cells; host or cells: HEK-293 cells; conditions: read-out: H1 [%]
Chain of histaminergic H1 receptor (P35367 whole entry): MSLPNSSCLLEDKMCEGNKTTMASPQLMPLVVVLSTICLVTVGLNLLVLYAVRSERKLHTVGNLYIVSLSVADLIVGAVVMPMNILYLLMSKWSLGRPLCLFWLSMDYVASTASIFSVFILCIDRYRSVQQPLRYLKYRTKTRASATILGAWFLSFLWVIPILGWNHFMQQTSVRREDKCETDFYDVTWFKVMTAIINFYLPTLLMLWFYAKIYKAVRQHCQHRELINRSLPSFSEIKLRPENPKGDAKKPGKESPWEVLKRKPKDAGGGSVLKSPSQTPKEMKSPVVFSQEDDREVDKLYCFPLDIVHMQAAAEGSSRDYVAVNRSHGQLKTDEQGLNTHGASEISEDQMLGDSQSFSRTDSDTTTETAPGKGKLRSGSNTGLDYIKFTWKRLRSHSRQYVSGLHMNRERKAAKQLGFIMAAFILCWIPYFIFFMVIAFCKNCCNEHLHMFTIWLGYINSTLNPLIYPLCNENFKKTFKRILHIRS
Method in brief: as §3

[5] = target: T3, serotoninergic 5-HT1A receptor (Homo sapiens, UniProt P08908); experiment: Binding assay 5-HT1A (h), [3H]8-OH-DPAT, HEK-293 cells; set-up: expressed in transfected cells; host or cells: HEK-293 cells; conditions: read-out: 5-HT1A
T3 sequence (P08908 1-422): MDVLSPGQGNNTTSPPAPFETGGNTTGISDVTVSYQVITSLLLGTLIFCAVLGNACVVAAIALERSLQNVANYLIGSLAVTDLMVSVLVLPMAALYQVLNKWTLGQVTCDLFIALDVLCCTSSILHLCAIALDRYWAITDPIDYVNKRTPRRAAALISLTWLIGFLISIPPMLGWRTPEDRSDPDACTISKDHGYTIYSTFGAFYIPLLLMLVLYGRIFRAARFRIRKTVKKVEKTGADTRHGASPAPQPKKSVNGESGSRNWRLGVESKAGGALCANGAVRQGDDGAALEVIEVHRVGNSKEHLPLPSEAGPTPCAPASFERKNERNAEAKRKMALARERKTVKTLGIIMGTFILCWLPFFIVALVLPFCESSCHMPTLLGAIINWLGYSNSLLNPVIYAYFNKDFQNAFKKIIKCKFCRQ
Method in brief: as §3

[6] = target: T4, serotoninergic receptor 5-HT2C (Homo sapiens, UniProt P28335); experiment: Binding assay 5-HT2C (h), [3H]mesulergine, HEK-293 cells; conditions: read-out: 5-HT2C [%]
T4 construct: expressed in transfected cells; host or cells: HEK-293 cells
T4 sequence (P28335 33-458): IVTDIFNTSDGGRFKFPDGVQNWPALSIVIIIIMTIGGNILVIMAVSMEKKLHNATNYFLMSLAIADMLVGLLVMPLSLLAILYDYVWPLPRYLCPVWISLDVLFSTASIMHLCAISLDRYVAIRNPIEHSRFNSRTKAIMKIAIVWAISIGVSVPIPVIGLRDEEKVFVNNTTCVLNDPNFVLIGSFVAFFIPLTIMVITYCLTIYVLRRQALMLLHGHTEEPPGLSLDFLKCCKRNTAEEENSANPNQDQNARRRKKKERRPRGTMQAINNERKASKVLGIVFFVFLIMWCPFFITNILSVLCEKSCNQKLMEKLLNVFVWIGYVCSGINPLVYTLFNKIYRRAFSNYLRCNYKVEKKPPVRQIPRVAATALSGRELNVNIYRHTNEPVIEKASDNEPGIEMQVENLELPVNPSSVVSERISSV
Method in brief: as §3

[7] = target: T5, adrenergic α2C receptor (Homo sapiens, UniProt P18825); experiment: Binding assay α2C (h), [3H]RX 821002, CHO cells; set-up: expressed in transfected cells; host or cells: CHO cells; conditions: read-out: α2C [%]
T5 sequence (P18825 1-462): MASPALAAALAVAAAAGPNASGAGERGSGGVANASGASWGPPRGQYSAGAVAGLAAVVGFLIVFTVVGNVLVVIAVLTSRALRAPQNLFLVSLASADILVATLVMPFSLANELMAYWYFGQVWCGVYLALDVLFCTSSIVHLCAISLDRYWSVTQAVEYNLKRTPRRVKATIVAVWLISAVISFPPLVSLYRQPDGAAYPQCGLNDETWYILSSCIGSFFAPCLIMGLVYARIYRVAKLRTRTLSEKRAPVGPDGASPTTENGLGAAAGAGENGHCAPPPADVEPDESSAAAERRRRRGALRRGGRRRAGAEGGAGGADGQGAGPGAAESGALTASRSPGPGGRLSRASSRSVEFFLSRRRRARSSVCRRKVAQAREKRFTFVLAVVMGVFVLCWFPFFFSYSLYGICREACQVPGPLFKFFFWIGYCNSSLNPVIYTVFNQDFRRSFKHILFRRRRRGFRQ
Method in brief: as §3

[8] = target: T6, serotoninergic 5-HT6 receptor (Homo sapiens, UniProt P50406); experiment: Cellular functional assay, serotoninergic 5-HT6 receptor (agonism/antagonism); assay type: cell-based; conditions: for activation at 1 µM: agonist effect, percent of control specific agonist response, compounds tested at 1×10^−6M, read-out: 5-HT6-ag [%]; for inhibition at 1 µM: read-out: 5-HT6-antag. [%]
T6 sequence (P50406 whole entry): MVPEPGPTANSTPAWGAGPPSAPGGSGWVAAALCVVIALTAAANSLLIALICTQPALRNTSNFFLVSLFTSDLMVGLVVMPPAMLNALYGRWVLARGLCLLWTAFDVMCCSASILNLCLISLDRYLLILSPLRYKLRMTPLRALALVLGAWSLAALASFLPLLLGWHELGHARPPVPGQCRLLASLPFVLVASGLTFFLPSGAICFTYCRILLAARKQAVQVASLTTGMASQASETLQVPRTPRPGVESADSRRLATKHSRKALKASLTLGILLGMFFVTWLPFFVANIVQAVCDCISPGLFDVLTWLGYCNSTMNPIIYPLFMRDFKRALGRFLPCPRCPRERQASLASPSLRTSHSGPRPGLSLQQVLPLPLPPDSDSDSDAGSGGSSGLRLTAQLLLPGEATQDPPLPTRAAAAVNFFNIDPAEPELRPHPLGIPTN
Description: as §1, §2

[9] = target: T6, serotoninergic 5-HT6 receptor; experiment: Binding assay 5-HT6 (h), [3H]LSD, CHO cells; set-up: expressed in transfected cells; host or cells: CHO cells; conditions: read-out: 5-HT6
Method in brief: as §3

[10] = target: T1, serotoninergic 5-HT7 receptor; experiment: Binding assay 5-HT7 (h), [3H]LSD, CHO cells; set-up: expressed in transfected cells; host or cells: CHO cells; conditions: read-out: 5-HT7
Method in brief: as §3

[11] = target: serotoninergic 5-HT2A receptor (Homo sapiens, UniProt P28223); experiment: Binding assay 5-HT2A (h), [3H]ketanserin, HEK-293 cells; set-up: expressed in transfected cells; host or cells: HEK-293 cells; conditions: read-out: 5-HT2A
Chain of serotoninergic 5-HT2A receptor (P28223 whole entry): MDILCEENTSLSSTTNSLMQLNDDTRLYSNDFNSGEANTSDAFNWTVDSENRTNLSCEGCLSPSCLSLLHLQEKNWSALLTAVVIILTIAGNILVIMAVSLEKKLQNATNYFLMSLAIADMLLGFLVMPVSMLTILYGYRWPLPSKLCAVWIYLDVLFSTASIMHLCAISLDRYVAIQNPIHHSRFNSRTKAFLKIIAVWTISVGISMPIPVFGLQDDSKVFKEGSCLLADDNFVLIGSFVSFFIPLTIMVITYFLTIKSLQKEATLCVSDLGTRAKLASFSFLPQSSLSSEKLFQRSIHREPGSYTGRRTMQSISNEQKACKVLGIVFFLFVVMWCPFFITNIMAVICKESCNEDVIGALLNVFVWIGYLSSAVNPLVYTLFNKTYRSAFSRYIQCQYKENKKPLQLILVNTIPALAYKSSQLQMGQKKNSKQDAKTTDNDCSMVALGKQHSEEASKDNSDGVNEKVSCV
Method in brief: as §3

[12] = target: T7, muscarinic M3 receptor (Homo sapiens, UniProt P20309); experiment: Binding assay M3 (h), [3H]4-DAMP, CHO cells; conditions: read-out: M3 [%]
T7 construct: expressed in transfected cells; host or cells: CHO cells
T7 sequence (P20309 whole entry): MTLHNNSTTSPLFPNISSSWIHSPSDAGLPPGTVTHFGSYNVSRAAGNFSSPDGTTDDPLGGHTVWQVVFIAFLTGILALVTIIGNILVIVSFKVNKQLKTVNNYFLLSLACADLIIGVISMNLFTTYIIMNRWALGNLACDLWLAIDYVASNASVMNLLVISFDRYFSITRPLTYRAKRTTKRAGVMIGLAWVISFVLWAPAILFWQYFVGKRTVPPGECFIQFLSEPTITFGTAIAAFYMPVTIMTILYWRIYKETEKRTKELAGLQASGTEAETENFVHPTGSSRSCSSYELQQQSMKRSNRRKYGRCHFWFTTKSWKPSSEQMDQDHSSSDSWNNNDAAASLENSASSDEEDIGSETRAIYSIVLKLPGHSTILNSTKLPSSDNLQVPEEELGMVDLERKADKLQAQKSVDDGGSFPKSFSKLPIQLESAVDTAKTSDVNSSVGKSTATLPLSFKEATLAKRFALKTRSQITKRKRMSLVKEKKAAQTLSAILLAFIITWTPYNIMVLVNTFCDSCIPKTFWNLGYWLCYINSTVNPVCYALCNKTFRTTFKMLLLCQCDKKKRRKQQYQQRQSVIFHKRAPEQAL
Method in brief: as §3

[13] = target: dopaminergic D3 receptor (Homo sapiens, UniProt P35462); experiment: Binding assay D3 (h), [3H]methyl-spiperone, CHO cells; set-up: expressed in transfected cells; host or cells: CHO cells; conditions: read-out: D3 [%]
Chain of dopaminergic D3 receptor (P35462 whole entry): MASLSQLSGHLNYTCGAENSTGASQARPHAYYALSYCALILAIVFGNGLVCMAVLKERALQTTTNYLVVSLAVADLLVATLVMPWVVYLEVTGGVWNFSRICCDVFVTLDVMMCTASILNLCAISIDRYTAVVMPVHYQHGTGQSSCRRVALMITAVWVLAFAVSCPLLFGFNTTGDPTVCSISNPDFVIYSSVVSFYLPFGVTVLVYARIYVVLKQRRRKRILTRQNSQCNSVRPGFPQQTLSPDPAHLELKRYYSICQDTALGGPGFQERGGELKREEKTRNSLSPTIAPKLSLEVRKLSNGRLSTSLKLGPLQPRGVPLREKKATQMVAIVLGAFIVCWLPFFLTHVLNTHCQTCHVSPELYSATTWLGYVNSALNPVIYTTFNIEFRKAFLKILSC
Method in brief: as §3

[14] = test system: adrenergic α1 receptor; experiment: Binding assay α1 (non-selective), [3H]prazosin, rat cerebral cortex; conditions: percent inhibition of control specific binding; compounds tested at 1×10^−6 M
Method in brief: as §3

[15] = target: T8, dopaminergic D2 receptor (Homo sapiens, UniProt P14416); experiment: Binding assay D2S (h), [3H]methyl-spiperone, HEK-293 cells; set-up: expressed in transfected cells; host or cells: HEK-293 cells; conditions: read-out: D2 [%]
Method in brief: as §3
Target sequence in this assay (P14416 1-414 isoform P14416-2): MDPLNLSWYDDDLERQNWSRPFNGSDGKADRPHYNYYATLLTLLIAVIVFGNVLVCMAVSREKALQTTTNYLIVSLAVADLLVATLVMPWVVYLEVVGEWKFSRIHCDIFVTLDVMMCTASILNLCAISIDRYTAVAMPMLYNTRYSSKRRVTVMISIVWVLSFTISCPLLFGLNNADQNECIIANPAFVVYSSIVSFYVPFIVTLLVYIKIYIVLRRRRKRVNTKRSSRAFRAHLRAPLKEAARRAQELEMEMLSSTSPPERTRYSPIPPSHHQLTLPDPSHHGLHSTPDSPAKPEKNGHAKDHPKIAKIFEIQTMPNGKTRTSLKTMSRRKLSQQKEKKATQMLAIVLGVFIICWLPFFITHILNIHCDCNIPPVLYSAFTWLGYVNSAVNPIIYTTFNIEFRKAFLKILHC

[16] = target: T8, dopaminergic D2 receptor; experiment: Cellular functional assay, dopaminergic D2 receptor (agonism/antagonism); assay type: cell-based; conditions: HEK293
Description: as §1, §2
Target sequence in this assay (P14416 whole entry): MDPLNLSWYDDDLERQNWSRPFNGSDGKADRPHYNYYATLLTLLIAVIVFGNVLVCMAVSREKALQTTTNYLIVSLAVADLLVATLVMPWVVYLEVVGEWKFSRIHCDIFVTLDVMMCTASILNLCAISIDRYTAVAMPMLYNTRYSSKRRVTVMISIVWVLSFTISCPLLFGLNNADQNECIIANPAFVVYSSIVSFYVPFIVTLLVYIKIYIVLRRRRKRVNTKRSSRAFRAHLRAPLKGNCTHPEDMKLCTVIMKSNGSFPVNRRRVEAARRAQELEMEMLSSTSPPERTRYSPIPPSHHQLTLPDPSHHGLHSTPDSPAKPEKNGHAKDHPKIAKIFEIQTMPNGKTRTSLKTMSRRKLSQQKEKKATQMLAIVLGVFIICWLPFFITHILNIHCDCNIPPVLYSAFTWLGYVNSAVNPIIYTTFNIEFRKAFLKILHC

Row | activation at 1 µM ([16]; agonist effect, percent of control specific agonist response (3 μM dopamine for control), 1×10^−6 M, D2S (h), HEK-293 cells, read-out: D2-ag [%]) | inhibition at 1 µM ([16]; read-out: D2-antag. [%]) | Structure (SMILES) | activation at 1 µM [1] | inhibition at 1 µM [1] | σ [%] [2] | inhibition at 1 µM [3] | inhibition at 1 µM [4] | inhibition at 1 µM [5] | inhibition at 1 µM [6] | inhibition at 1 µM [7] | activation at 1 µM [8] | inhibition at 1 µM [8] | inhibition at 1 µM [9] | inhibition at 1 µM [10] | inhibition at 1 µM [11] | inhibition at 1 µM [12] | inhibition at 1 µM [13] | α1 [%] [14] | inhibition at 1 µM [15]
1 | – | – | O=S(=O)(NCCN1CCC(c2noc3cc(F)ccc23)CC1)c1ccc2ccccc2c1 [Compound 24, N-[2-[4-(6-Fluoro-1,2-benzoxazol-3-yl)piperidin-1-yl]ethyl]naphthalene-2-sulphonamide] | 0% | 99% | 80% | 53% | 56% | 80% | 65% | 99% | 2% | 9% | 76% | 95% | 100% | 10% | 98% | 97% | 99%
2 | – | – | Cc1cccc(S(=O)(=O)NCCN2CCC(c3noc4cc(F)ccc34)CC2)c1 [Compound 25, N-[2-[4-(6-Fluoro-1,2-benzoxazol-3-yl)piperidin-1-yl]ethyl]-3-methylbenzenesulphonamide] | -1% | 97% | 76% | 20% | 62% | 92% | 32% | 98% | 0% | 6% | 71% | 98% | 100% | 6% | 94% | 98% | 96%
3 | 35% | 89% | O=S(=O)(NCCCCN1CCN(c2cccc3[nH]ccc23)CC1)c1csc2ccccc12 [Compound 32, N-{4-[4-(1H-Indol-4-yl)piperazin-1-yl]butyl}-1-benzothiophene-3-sulphonamide] | – | – | – | – | – | – | – | – | – | – | 23% | – | – | – | – | – | 101%
